Key:
Leishmania donovani [1] = experiment: Antileishmanial activity against Leishmania donovani promastigotes; assay type: functional, organism-based
[2] = Binding affinity to Leishmania donovani NMT assessed as apparent inhibition constant; details: read-out: Ki(app)
Leishmania donovani [3] = experiment: Antileishmanial activity against Leishmania donovani amastigotes; assay type: functional, organism-based
[4] = Inhibition of Trypanosoma brucei NMT
[5] = Inhibition of Trypanosoma brucei NMT by scintillation proximity assay
Leishmania donovani [6] = experiment: Antileishmanial activity against Leishmania donovani MHOM/ET/67/HU3 axenic amastigotes; assay type: functional, organism-based
Leishmania donovani [7] = experiment: Antileishmanial activity against Leishmania donovani MHOM/ET/67/HU3 infected in BALB/c mouse model assessed as reduction in parasitic load at 50 mg/kg, po measured after 5 days relative to control; assay type: functional; set-up: scale not given: the % may be the effect or the level left; details: time 5 day
Leishmania donovani [8] = experiment: Antileishmanial activity against Leishmania donovani promastigote assessed as reduction in parasite growth measured after 72 hrs; assay type: functional, organism-based
[9] = tested on: Trypanosoma brucei brucei; experiment: Antitrypanosomal activity against bloodstream Trypanosoma brucei brucei s427 assessed as reduction in parasite growth measured after 72 hrs by inverted microscope based analysis; assay type: functional, organism-based; details: s427, 72 h
[10] = Inhibition of recombinant Leishmania donovani NMT
Trypanosoma brucei [11] = experiment: Antitrypanosomal activity against Trypanosoma brucei assessed as reduction in parasite growth; assay type: functional, organism-based
[12] = target: T1, Glycylpeptide N-tetradecanoyltransferase (Plasmodium falciparum, UniProt Q9U419); experiment: Inhibition of recombinant N-terminal Plasmodium falciparum NMT expressed in Escherichia coli using peptide substrate preincubated for 5 mins followed by substrate addition and measured after 30 mins by scintillation proximity assay
T1 sequence (Q9U419 whole entry): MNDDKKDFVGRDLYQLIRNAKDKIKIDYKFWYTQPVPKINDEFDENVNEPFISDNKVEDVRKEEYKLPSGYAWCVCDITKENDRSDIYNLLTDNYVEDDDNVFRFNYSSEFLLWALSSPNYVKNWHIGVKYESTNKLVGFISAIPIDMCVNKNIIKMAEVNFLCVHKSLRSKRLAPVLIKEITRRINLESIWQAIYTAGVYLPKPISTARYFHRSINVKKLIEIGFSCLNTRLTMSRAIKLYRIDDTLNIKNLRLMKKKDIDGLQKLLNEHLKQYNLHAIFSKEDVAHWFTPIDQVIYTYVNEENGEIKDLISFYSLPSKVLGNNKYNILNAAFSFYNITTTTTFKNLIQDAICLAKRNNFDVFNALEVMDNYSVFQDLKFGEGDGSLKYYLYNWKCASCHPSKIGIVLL

Plasmodium falciparum = experiment: Antiplasmodial activity against synchronized late stage trophozoite Plasmodium falciparum 3D7 assessed as reduction in parasitemia relative to control; assay type: functional; set-up: scale not given: the % may be the effect or the level left
Leishmania amazonensis = experiment: Antileishmanial activity against Leishmania amazonensis IFLA/BR/1967/PH8 promastigote; assay type: functional, organism-based
[13] = target: T1, Glycylpeptide N-tetradecanoyltransferase; experiment: Inhibition of recombinant Plasmodium falciparum NMT using 3H-myristoyl CoA as substrate preincubated for 15 mins followed by substrate addition and measured after 80 mins
[14] = target: T2, Glycylpeptide N-tetradecanoyltransferase 2 (Homo sapiens, UniProt O60551); experiment: Inhibition of human NMT2
T2 sequence (O60551 whole entry): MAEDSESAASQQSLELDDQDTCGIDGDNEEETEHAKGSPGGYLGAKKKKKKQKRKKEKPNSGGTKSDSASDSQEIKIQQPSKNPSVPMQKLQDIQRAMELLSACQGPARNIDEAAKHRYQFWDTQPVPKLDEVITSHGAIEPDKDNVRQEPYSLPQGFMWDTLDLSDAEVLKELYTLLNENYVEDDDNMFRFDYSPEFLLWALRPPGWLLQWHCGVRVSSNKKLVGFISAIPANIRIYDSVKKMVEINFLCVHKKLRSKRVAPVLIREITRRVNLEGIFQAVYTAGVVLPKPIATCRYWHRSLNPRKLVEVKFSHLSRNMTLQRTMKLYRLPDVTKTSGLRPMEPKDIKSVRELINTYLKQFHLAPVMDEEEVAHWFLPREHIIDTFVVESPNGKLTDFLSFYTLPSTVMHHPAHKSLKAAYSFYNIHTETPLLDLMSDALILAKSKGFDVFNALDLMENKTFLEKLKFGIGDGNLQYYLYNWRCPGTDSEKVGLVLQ

[15] = target: T3, Glycylpeptide N-tetradecanoyltransferase 1 (Homo sapiens, UniProt P30419); experiment: Inhibition of human NMT1
T3 sequence (P30419 whole entry): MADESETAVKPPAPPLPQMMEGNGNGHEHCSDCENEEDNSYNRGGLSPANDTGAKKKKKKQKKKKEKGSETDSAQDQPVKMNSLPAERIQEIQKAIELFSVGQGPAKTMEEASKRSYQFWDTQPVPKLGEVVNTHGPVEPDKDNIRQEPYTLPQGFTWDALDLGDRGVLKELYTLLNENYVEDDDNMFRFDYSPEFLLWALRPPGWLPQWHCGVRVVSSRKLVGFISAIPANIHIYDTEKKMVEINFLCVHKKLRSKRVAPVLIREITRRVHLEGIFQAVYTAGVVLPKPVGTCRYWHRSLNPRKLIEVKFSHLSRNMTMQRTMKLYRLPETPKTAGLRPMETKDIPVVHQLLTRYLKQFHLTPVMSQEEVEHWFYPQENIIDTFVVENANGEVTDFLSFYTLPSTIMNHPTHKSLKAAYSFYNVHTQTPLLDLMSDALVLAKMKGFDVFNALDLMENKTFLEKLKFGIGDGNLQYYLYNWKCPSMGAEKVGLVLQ

[16] = Inhibition of Leishmania donovani NMT using 3H-myristoyl CoA as substrate preincubated for 15 mins followed by substrate addition and measured after 80 mins
[17] = Cytotoxicity against mouse RAW 264 cells by alamar blue staining based analysis; assay type: functional; details: RAW264.7, read-out: ED50 (the source's name)
Trypanosoma brucei [18] = experiment: Antiprotozoal activity against blood stream form Trypanosoma brucei assessed as reduction in number of viable parasites measured after 72 hrs by Alamar blue staining based analysis; assay type: functional; details: read-out: ED50 (the source's name)
[19] = Inhibition of N terminal his-6 tagged recombinant Trypanosoma brucei NMT using CAP5.5 peptide as substrate incubated for 10 mins

In the case of `Cc1nn(C)c(C)c1NS(=O)(=O)c1c(Cl)cc(-c2ccnc(N3CCNCC3)c2)cc1Cl`, the EC50 (Leishmania donovani [1]) is reported as 23 µM, the Ki [2] is reported as 2.5 nM and the EC50 (Leishmania donovani [3]) is reported as 7 µM.

For `COc1cc(C2SCC(=O)N2Cc2ccccc2)ccc1O` (configuration not stated), the IC50 [4] was 22000 nM.

`Cc1nn(C)c(C)c1NS(=O)(=O)c1c(Cl)cc(Br)cc1Cl` showed an IC50 [5] of 340 nM.

For `Cc1nn(C)c(C)c1NS(=O)(=O)c1c(Cl)cc(-c2ccnc(N3CCN(C)CC3)c2)cc1Cl`, the Ki [2] was 6.3 nM and the EC50 (Leishmania donovani [3]) was 0.15 µM.

Molecule `Cc1nn(C)c(C)c1N(C)S(=O)(=O)c1c(Cl)cc(CCCC2CCN(C)CC2)cc1Cl` has an EC50 (Leishmania donovani [6]) of 7.1 µM.

Work on `Cc1nn(C)c(C)c1N(C(F)F)S(=O)(=O)c1c(Cl)cc(CCCC2CCN(C)CC2)cc1Cl` yielded an EC50 (Leishmania donovani [6]) of 2.4 µM and an Activity (Leishmania donovani [7]) of 52%.

For `Cc1nn(C)c(Cl)c1S(=O)(=O)Nc1ccc(Oc2ccc(F)cc2)cc1`, the IC50 (Leishmania donovani [8]) was 45.3 µM and the IC50 [9] was 11.8 µM.

For `CCOC(=O)c1cnc2ccc(OCc3ccc(N4CCNCC4)nc3)cc2c1SCCC#N`, the IC50 [10] was 24 nM.

`COc1cc(C2SCC(=O)N2Cc2ccccn2)ccc1O` (configuration not stated) showed an IC50 [4] of 270 nM and an EC50 (Trypanosoma brucei [11]) of 14000 nM.

Work on `Cc1cc(CN2C(=O)COc3c(CCCCC4CCN(C)CC4)cccc32)no1` yielded an EC50 (Trypanosoma brucei [11]) of 7 nM.

`O=C(Nc1nc2cc(F)ccc2s1)[C@H]1CC[C@@H](NCc2ccc3ccccc3c2)CC1` gave an IC50 [12] of 53 µM and an Activity (Plasmodium falciparum) of 80%.

Work on `Cc1cc(CN2C(=O)COc3cc(CCCCC4CCN(C)CC4)ccc32)no1` yielded an EC50 (Trypanosoma brucei [11]) of 7 nM.

Work on `Cc1cc(CN2C(=O)COc3c(CCCCC4CCNCC4)cccc32)no1` yielded an EC50 (Trypanosoma brucei [11]) of 7 nM.

In the case of `Cc1cc(CN2C(=O)COc3ccccc32)no1`, the IC50 [4] is reported as 2900 nM.

In the case of `COc1ccc(NC(=O)C[Se]C(=O)c2ccccc2)cc1`, the IC50 (Leishmania amazonensis) is reported as 8.71 µM.

With `Cc1ncc(CNC(=O)C2CN(c3nc(NCCN(C)C)ncc3Cl)C2)cn1` the IC50 [13] was 480 nM, the IC50 [14] was 76 µM and the IC50 [15] was 70 µM.

Work on `COc1ccc(Br)c(-c2nnc(-c3ccccc3NS(=O)(=O)c3ccc(Cl)cc3)o2)c1` yielded an IC50 [9] of 14.7 µM.

`O=C(C[Se]C(=O)c1ccc(Cl)cc1)Nc1ccc(Cl)cc1` showed an IC50 (Leishmania amazonensis) of 9.12 µM.

`c1cncc(CCNCc2cccc(-c3cccc(CN4CCc5ncsc5C4)c3)c2)c1` gave an IC50 [16] of 160 nM.

Work on `CC(=O)O[C@@H]1C2[C@H](N(C)C)C(O)=C(C(N)=O)C(=O)[C@@]2(O)C(O)=C2C(=O)c3c(O)cccc3C(=O)[C@@H]21` (some centres not stated) yielded an EC50 [17] of 1.5 mM, an EC50 (Trypanosoma brucei [18]) of 66 µM and an IC50 [19] of 250 nM.

Work on `O=C(C[Se]C(=O)c1ccccc1)Nc1ccc(Br)cc1` yielded an IC50 (Leishmania amazonensis) of 5.5 µM.

Reference: ChEMBL document CHEMBL5634069, “Exploring N-myristoyltransferase as a promising drug target against parasitic neglected tropical diseases” (Eur J Med Chem, 2023)
